Measured values taken from ChEMBL document CHEMBL5344464, “Forgotten Natural Products: Semisynthetic Development of Blasticidin S As an Antibiotic Lead” (ACS Med Chem Lett, 2024).
≈ marks a conversion by molar mass, not a printed value.

Experiments:
Klebsiella pneumoniae = experiment: Antibacterial activity against Klebsiella pneumoniae ATCC 29665 assessed as minimum inhibitory concentration incubated for 16 to 18 hrs by broth microdilution method; type: functional; details: time 16-18 hrs
Enterococcus faecalis = experiment: Antibacterial activity against Enterococcus faecalis ATCC 29212 assessed as minimum inhibitory concentration incubated for 24 hrs by broth microdilution method; type: functional

| MIC90 (Klebsiella pneumoniae) [µg/mL] | MIC90 (Enterococcus faecalis) [µg/mL] | SMILES |
| --- | --- | --- |
| 128 (≈ 276 µM) | – | CCCNC(=O)[C@H]1O[C@@H](n2ccc(N)nc2=O)C=C[C@@H]1NC(=O)C[C@@H](N)CCN(C)C(=N)N |
| – | 16 (≈ 35.6 µM) | CN(C)C(=O)[C@H]1O[C@@H](n2ccc(N)nc2=O)C=C[C@@H]1NC(=O)C[C@@H](N)CCN(C)C(=N)N |
| – | 16 (≈ 36.7 µM) | CNC(=O)[C@H]1O[C@@H](n2ccc(N)nc2=O)C=C[C@@H]1NC(=O)C[C@@H](N)CCN(C)C(=N)N |

| SMILES | MIC90 (Klebsiella pneumoniae) [µg/mL] | MIC90 (Enterococcus faecalis) [µg/mL] |
| --- | --- | --- |
| CN(CC[C@H](N)CC(=O)N[C@H]1C=C[C@H](n2ccc(N)nc2=O)O[C@@H]1C(=O)O)C(=N)N [BLASTICIDIN_S] | – | 32 (≈ 75.7 µM) |
